Data published in ChEMBL document CHEMBL5233262, “Anti-inflammatory activity of naturally occuring diarylheptanoids - A review” (Bioorg Med Chem, 2021).

What was measured:
[1] = test system: Rattus norvegicus; assay: Antiinflammatory activity against Freund's complete adjuvant-induced arthritic Wistar rat model assessed as reduction in TNF-alpha level at 5 mg/kg,po measured after 28 days by ELISA; type: functional; design: scale not given: the % may be the effect or the level left; conditions: time 28 day
[2] = test system: Rattus norvegicus; assay: Antiinflammatory activity against Freund's complete adjuvant-induced arthritic Wistar rat model assessed as reduction in IL-6 level at 5 mg/kg,po measured after 28 days by ELISA; type: functional; design: scale not given: the % may be the effect or the level left; conditions: time 28 day
[3] = test system: Rattus norvegicus; assay: Antiinflammatory activity in Wistar rat model of carrageenan-induced paw edema assessed as reduction in paw thickness at 10 mg/kg,po and measured after 5 hrs; type: functional; design: scale not given: the % may be the effect or the level left
[4] = test system: Rattus norvegicus; assay: Antiinflammatory activity against Freund's complete adjuvant-induced arthritic Wistar rat model assessed as reduction in IL-1beta level at 5 mg/kg,po measured after 28 days by ELISA; type: functional; design: scale not given: the % may be the effect or the level left; conditions: time 28 day
[5] = test system: Rattus norvegicus; assay: Antiinflammatory activity against Freund's complete adjuvant-induced arthritic Wistar rat model assessed as reduction in paw volume at 5 mg/kg,po measured after 28 days; type: functional; design: scale not given: the % may be the effect or the level left; conditions: time 28 day
[6] = test system: HUVEC; assay: Antiinflammatory activity in human HUVEC cells assessed as inhibition of TNFalpha-induced ICAM-1 expression at 1 to 50 uM preincubated for 2 hrs followed by TNFalpha stimulation and measured after 8 hrs by ELISA; type: functional; conditions: dose 1-50 µM, time 10 hrs
[7] = test system: HUVEC; assay: Antiinflammatory activity in human HUVEC cells assessed as inhibition of IL-1beta induced VCAM-1 expression at 1 to 50 uM preincubated for 2 hrs followed by IL-1beta stimulation and measured after 8 hrs by ELISA; type: functional; conditions: dose 1-50 µM, time 10 hrs
[8] = test system: HUVEC; assay: Antiinflammatory activity in human HUVEC cells assessed as inhibition of TNFalpha-induced VCAM-1 expression at 1 to 50 uM preincubated for 2 hrs followed by TNFalpha stimulation and measured after 8 hrs by ELISA; type: functional; conditions: dose 1-50 µM, time 10 hrs
[9] = test system: Zingiber officinale; assay: Inhibition of prostaglandin biosynthesis in ginger; type: functional, organism-based
[10] = target: T1, Polyunsaturated fatty acid 5-lipoxygenase (Homo sapiens, UniProt P09917); assay: Inhibition of 5-LOX in human neutrophils assessed as reduction in 5-HETE formation preincubated for 5 mins followed by arachidonic acid and A23187 addition and measured after 5 mins by RP-HPLC analysis; type: cell-based, Neutrophil
T1 sequence (P09917 whole entry): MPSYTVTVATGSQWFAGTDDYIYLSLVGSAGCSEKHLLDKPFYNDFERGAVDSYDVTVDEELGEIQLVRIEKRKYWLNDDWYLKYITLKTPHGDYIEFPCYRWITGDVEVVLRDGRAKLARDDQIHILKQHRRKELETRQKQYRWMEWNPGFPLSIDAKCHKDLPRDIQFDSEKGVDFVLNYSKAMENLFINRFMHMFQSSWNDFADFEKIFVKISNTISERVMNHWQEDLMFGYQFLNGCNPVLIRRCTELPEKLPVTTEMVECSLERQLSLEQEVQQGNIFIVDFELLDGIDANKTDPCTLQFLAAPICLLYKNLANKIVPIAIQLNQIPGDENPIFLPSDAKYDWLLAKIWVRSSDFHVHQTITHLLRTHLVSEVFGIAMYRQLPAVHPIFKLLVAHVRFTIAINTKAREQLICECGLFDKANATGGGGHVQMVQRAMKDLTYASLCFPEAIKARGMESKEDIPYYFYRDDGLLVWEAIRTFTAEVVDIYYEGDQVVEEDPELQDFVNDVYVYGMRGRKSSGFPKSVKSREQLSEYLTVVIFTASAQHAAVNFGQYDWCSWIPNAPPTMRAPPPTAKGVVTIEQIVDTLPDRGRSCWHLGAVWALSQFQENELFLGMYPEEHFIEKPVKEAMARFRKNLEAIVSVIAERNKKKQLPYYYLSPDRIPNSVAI

[11] = Inhibition of COX in bovine seminal vesicle assessed as reduction in PGE2 production using arachidonic acid as substrate; type: tissue-based, Bos taurus
[12] = test system: Mus musculus; assay: Antiinflammatory activity in ICR mouse model of TPA-induced ear edema assessed as inhibition of ear inflammation at 20 uM,TOP for 30 mins followed by TPA addition and measured after 5 hrs; type: functional; conditions: 5.5 h, time 330 min
[13] = test system: HUVEC; assay: Antiinflammatory activity in human HUVEC cells assessed as inhibition of IL-1beta induced ICAM-1 expression at 1 to 50 uM preincubated for 2 hrs followed by IL-1beta stimulation and measured after 8 hrs by ELISA; type: functional; conditions: dose 1-50 µM, time 10 hrs
[14] = test system: RAW264.7; assay: Antiinflammatory activity in mouse RAW264.7 cells assessed as inhibition of LPS-induced NO production at 25 uM incubated for 24 hrs by Griess reagent based assay; type: functional
[15] = test system: Mus musculus; assay: Antiinflammatory activity in TPA-induced ear edema ICR mouse model assessed as inhibition of ear inflammation at 1 ug, TOP for 30 mins followed by TPA addition and measured after 6 hrs; type: functional; conditions: dose 1 µg, time 390 min, 6.5 h
[16] = test system: RAW264.7; assay: Cytotoxicity against mouse RAW264.7 cells assessed as reduction in cell viability at 0.07 to 0.1 mg/ml incubated for 24 hrs by MTT assay; type: toxicity, cell-based; conditions: raw264.7, 24 h, dose 0.07-0.1 mg/ml
[17] = test system: HepG2; assay: Antiinflammatory activity in human HepG2 cells assessed as inhibition of LPS-induced TNFalpha mRNA expression at 10 ug/ml preincubated for 1 hrs followed by LPS stimulation and measured after 24 hrs by qPCR analysis; type: functional; conditions: time 25 hrs
[18] = Antiinflammatory activity in human PBMC cells assessed as inhibition of LPS-induced IL-1beta production at 25 uM incubated for 18 hrs by ELISA; type: functional
[19] = test system: RAW264.7; assay: Antiinflammatory activity in mouse RAW264.7 cells assessed as inhibition of KLA-induced TNFalpha expression at 0.02 mg/ml and measured after 24 hrs by ELISA; type: functional
[20] = test system: RAW264.7; assay: Antiinflammatory activity in mouse RAW264.7 cells assessed as inhibition of LPS-induced NO production incubated for 20 hrs by Griess reagent based microplate reader analysis; type: functional, cell-based; conditions: RAW264.7, 20 h
[21] = test system: RAW264.7; assay: Antiinflammatory activity in mouse RAW264.7 cells assessed as inhibition of LPS-induced iNOS mRNA expression at 25 uM incubated for 12 hrs by PCR analysis; type: functional
[22] = test system: HepG2; assay: Antiinflammatory activity in human HepG2 cells assessed as inhibition of LPS-induced IL-1beta mRNA expression at 10 ug/ml preincubated for 1 hrs followed by LPS stimulation and measured after 24 hrs by qPCR analysis; type: functional; conditions: time 25 hrs
[23] = test system: HepG2; assay: Antiinflammatory activity in human HepG2 cells assessed as inhibition of LPS-induced IL-6 mRNA expression at 10 ug/ml preincubated for 1 hrs followed by LPS stimulation and measured after 24 hrs by qPCR analysis; type: functional; conditions: time 25 hrs
[24] = test system: RAW264.7; assay: Antiinflammatory activity in mouse RAW264.7 cells assessed as inhibition of LPS-induced COX-2 mRNA expression at 25 uM incubated for 12 hrs by PCR analysis; type: functional
[25] = Antiinflammatory activity in human PBMC cells assessed as inhibition of LPS-induced TNFalpha production at 25 uM incubated for 18 hrs by ELISA; type: functional
[26] = test system: J774.1; assay: Antiinflammatory activity in mouse J774.1 cells assessed as inhibition of LPS-induced NO production at 10 microg/ml incubated for 48 hrs by Griess reagent based analysis; type: functional
[27] = Antioxidant activity assessed as DPPH radical scavenging activity incubated for 25 mins by spectrophotometric analysis; type: functional
[28] = test system: Rattus norvegicus; assay: Antiinflammatory activity in rat model of ethyl phenylpropiolate-induced ear edema assessed as reduction in ear thickness administered topically and measured after 1 hr; type: functional
[29] = test system: Rattus norvegicus; assay: Antiinflammatory activity in rat model of ethyl phenylpropiolate-induced ear edema assessed as reduction in ear thickness administered topically and measured after 30 mins; type: functional; conditions: 0.5 h
[30] = test system: Rattus norvegicus; assay: Antiinflammatory activity in rat model of carrageenan-induced hind paw edema assessed as reduction in paw thickness at 100 mg/kg,ip 30mins before carrageenin exposure and measured after 3 hrs; type: functional; design: scale not given: the % may be the effect or the level left
[31] = test system: Mus musculus; assay: Antiinflammatory activity in ICR mouse model of thioacetamide-induced hepatotoxicity assessed as reduction in TNF-alpha expression at 1 mg/kg,ip pretreated with compound followed by TA induction and measured after 24 hrs by RT-PCR analysis; type: functional; design: scale not given: the % may be the effect or the level left

O=C(O)Cc1ccccc1Nc1c(Cl)cccc1Cl [DICLOFENAC]
Activity [1]: 47% | Activity [2]: 2.5% | Activity [3]: 39.5% | Activity [4]: 7% | Activity [5]: 28.3%

COc1cc(/C=C/C(=O)CCCCc2ccccc2)ccc1O
inhibition (INH) [6]: 0% | inhibition (INH) [7]: 0% | inhibition (INH) [8]: 0% | IC50 [9]: 2.3 µM | IC50 [10]: 4 µM | IC50 [11]: 23 µM | inhibition in vivo at 20 µM [12]: 52% | inhibition (INH) [13]: 0%

COc1cc(CC/C=C/C(=O)CCc2ccccc2)ccc1O
inhibition at 25 µM [14]: 50% | ID50 [15]: 2.2 µmol | Activity [16]: > 80% | inhibition at 10 µg/mL [17]: 85% | inhibition at 25 µM [18]: 85% | inhibition at 20 µg/mL [19]: 54% | IC50 [9]: 50 µM | IC50 [20]: 0.6 µM | inhibition at 25 µM [21]: 75.5% | inhibition at 10 µg/mL [22]: 86% | inhibition at 10 µg/mL [23]: 52% | inhibition at 25 µM [24]: 54.6% | inhibition at 25 µM [25]: 43%

COc1cc(O)c([C@H]2C[C@H](CCc3ccc(O)cc3)O[C@@H](c3ccc(O)cc3)[C@H]2O)c(O)c1C(=O)/C=C/c1ccc(O)cc1
inhibition at 10 µg/mL [26]: 37.6%

O=C(O)c1cc(O)c(O)c(O)c1 [GALLIC ACID]
IC50 [27]: 10.4 µM

OC(/C=C/C=C/c1ccccc1)CCc1ccccc1 (configuration not stated)
ID50 [28]: 312 µg | ID50 [29]: 129 µg | Activity [30]: 39% | Activity [31]: 53%
